The record followed here is patent US7112601B2, “Cycloalkyl heterocycles for treating hepatitis C virus” (priority 2003, dated 2006).

The test deals with T1, HCV NS5B RdRp (Hepatitis C virus genotype 1b, UniProt Q9WMX2).
T1 construct: The protein was expressed with an 18 amino acid C-terminal truncation to enhance the solubility; made in house; host or cells: E. coli BL21(DE3)
The test is described as follows: HCV NS5B RdRp enzyme inhibition assay. The test is classed as biochemical. The procedure:
HCV NS5B RdRp cloning, expression, and purification. The cDNA encoding the NS5B protein of HCV, genotype 1b, was cloned into the pET21a expression vector. The protein was expressed with an 18 amino acid C-terminal truncation to enhance the solubility. The E. coli competent cell line BL21(DE3) was used for expression of the protein. Cultures were grown at 37° C. for ˜4 hours until the cultures reached an optical density of 2.0 at 600 nm. The cultures were cooled to 20° C. and induced with 1 mM IPTG. Fresh ampicillin was added to a final concentration of 50 ug/ml and the cells were grown overnight at 20° C.
Cell pellets (3L) were lysed for purification to yield 15–24 mgs of purified NS5B. The lysis buffer consisted of 20 mM Tris-HCl, pH 7.4, 500 mM NaCl, 0.5% triton X-100, 1 mM DTT, 1 mM EDTA, 20% glycerol, 0.5 mg/ml lysozyme, 10 mM MgCl2, 15 ug/ml deoxyribonuclease I, and Complete TM protease inhibitor tablets (Roche). After addition of the lysis buffer, frozen cell pellets were resuspended using a tissue homogenizer. To reduce the viscosity of the sample, aliquots of the lysate were sonicated on ice using a microtip attached to a Branson sonicator. The sonicated lysate was centrifuged at 100,000×g for 1 hr at 4° C. and filtered through a 0.2 μm filter unit (Corning).
The protein was purified using three sequential chromatography steps: Heparin sepharose CL-6B, polyU sepharose 4B, and Hitrap SP sepharose (Pharmacia). The chromatography buffers were identical to the lysis buffer but contained no lysozyme, deoxyribonuclease I, MgCl2 or protease inhibitor and the NaCl concentration of the buffer was adjusted according to the requirements for charging the protein onto the column. Each column was eluted with a NaCl gradient which varied in length from 5–50 column volumes depending on the column type. After the final chromatography step, the resulting purity of the enzyme is >90% based on SDS-PAGE analysis. The enzyme was aliquoted and stored at −80° C.
HCV NS5B RdRp enzyme assay. HCV RdRp genotype 1b assays were run in assay buffer composed of 20 mM Tris-HCl, pH 7.5, 2.5 mM KCl, 5 mM MgCl2, 1 mM DTT, 1.6 U RNAse inhibitor (Promega N2515), in 96 well plates (Falcon 3918). All compounds were serially diluted in DMSO and diluted further in assay buffer such that the final concentration of DMSO in the assay was 2%. Compounds were serially diluted (3-fold each time) for a 7 point inhibition analysis. HCV RdRp genotype 1b enzyme was used at a final concentration of 28 nM. A polyA template was used at 28 nM, and the oligo-dT12-18 primer was used at 840 nM final concentration. Preannealed primer and template were obtained commercially (Amersham 27-787802). ^3H-UTP was used at 0.125 μCi (1 μM total UTP). Reaction was initiated by the addition of enzyme. Reactions were incubated at 30° C. for 45 min, and stopped by adding 30 ul of 20% ice cold TCA. Plates were chilled for 30 minutes and harvested onto Unifilter-96, GF/B plates (Packard, 6005177) using a Packard FilterMate Cell Harvester. The harvest plates were prewashed 3 times, 200 ul/well, with 100 mM NaPPi. Harvested filters were washed 30 times, 200 ul/well, with distilled water followed by ethanol. Filter plates were dried, and 30 ul/well microscint-20 was added. Plates were read on a Packard Top Count NXT.
The IC50 values for compounds were determined using […] different [I], combined with 7 nM enzyme, 800 ng of the template-primer polyC/oligoG12 (1:5 molar ratio), and 0.7 uM of ^3H GTP containing 1 uCi. The observed fractional activity (fa=vi/vo) was used in the equation IC50=[I]/(1/fa-1) to determine a single point IC50 value. Typically, the single point IC50 values derived from [I] that produced fractional activities in the range of 0.1 to 0.8 relative to the uninhibited control were averaged to calculate the IC50 value for each compound.

SMILES strings stand for the structures.

T1 sequence (Q9WMX2 2420-2992): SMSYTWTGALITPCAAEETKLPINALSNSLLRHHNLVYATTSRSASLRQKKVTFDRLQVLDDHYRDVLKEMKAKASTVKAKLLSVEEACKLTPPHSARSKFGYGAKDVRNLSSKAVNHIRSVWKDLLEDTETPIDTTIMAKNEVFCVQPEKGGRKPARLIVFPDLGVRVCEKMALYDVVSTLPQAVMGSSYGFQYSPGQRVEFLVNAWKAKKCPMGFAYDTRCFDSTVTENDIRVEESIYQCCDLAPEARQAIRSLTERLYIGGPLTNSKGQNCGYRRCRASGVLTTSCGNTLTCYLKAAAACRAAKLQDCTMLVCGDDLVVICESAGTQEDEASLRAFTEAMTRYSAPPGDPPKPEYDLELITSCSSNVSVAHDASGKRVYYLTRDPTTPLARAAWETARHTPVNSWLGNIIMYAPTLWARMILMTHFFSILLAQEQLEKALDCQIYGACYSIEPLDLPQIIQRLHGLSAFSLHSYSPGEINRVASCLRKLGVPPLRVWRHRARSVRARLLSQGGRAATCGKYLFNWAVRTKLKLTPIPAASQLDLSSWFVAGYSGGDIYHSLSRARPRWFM

Regarding `CCOC(=O)c1cc(-c2ccc(OCc3ccccc3)cc2)n(C2CCCCC2)n1` [Example 1, Ethyl 1-cyclohexyl-5-(4-benzyloxyphenyl)-1H-pyrazole-3-carboxylate], the half-inhibitory concentration (IC50) was over 25 µM.

In the case of `COC(=O)/C=C/c1cc(-c2ccc(OCc3ccccc3)cc2)n(C2CCCCC2)n1` [Example 2, Methyl (2E)-3-{5-[4-(benzyloxy)phenyl]-1-cyclohexyl-1H-pyrazol-3-yl}-2-propenoate], the half-inhibitory concentration (IC50) is over 25 µM.

As to `O=C(O)/C=C/c1cc(-c2ccc(OCc3ccccc3)cc2)n(C2CCCCC2)n1` [Example 3, (2E)-3-[1-cyclohexyl-5-(4-benzyloxyphenyl)-1H-pyrazol-3-yl]-2-propenoic acid], the 50% inhibitory concentration (IC50) came to 15 µM.

As for `COC(=O)/C=C/c1cc(-c2ccc(OCc3cc(OC)ccc3-c3ccc(Cl)cc3)cc2)n(C2CCCCC2)n1` [Example 4, Methyl (2E)-3-(5-{4-[(4′-chloro-4-methoxy-1,1′-biphenyl-2-yl)methoxy]phenyl}-1-cyclohexyl-1H-pyrazol-3-yl)-2-propenoate], the IC50 was over 25 µM.

With `COc1ccc(-c2ccc(Cl)cc2)c(COc2ccc(-c3cc(/C=C/C(=O)O)nn3C3CCCCC3)cc2)c1` [Example 5, (2E)-3-(5-{4-[(4′-chloro-4-methoxy-1,1′-biphenyl-2-yl)methoxy]phenyl}-1-cyclohexyl-1H-pyrazol-3-yl)-2-propenoic acid], inhibition was half-maximal at 0.45 µM (IC50).

On to `CCOC(=O)/C(C)=C/c1cc(-c2ccc(OCc3ccccc3)cc2)n(C2CCCCC2)n1` [Example 6, Ethyl (2E)-3-{5-[4-(benzyloxy)phenyl]-1-cyclohexyl-1H-pyrazol-3-yl}-2-methyl-2-propenoate], for which the IC50 is over 25 µM.

Molecule `C/C(=C\c1cc(-c2ccc(OCc3ccccc3)cc2)n(C2CCCCC2)n1)C(=O)O` [Example 7, (2E)-3-{5-[4-(benzyloxy)phenyl]-1-cyclohexyl-1H-pyrazol-3-yl}-2-methyl-2-propenoic acid] gave a half-maximal inhibitory concentration (IC50) of 10 µM.

For the molecule `CCOC(=O)/C(C)=C/c1cc(-c2ccc(OCc3cc(OC)ccc3-c3ccc(Cl)cc3)cc2)n(C2CCCCC2)n1` [Example 8, Ethyl (2E)-3-(5-{4-[(4′-chloro-4-methoxy-1,1′-biphenyl-2-yl)methoxy]phenyl}-1-cyclohexyl-1H-pyrazol-3-yl)-2-methyl-2-propenoate], the IC50 was over 25 µM.

`COc1ccc(-c2ccc(Cl)cc2)c(COc2ccc(-c3cc(/C=C(\C)C(=O)O)nn3C3CCCCC3)cc2)c1` [Example 9, (2E)-3-(5-{4-[(4′-chloro-4-methoxy-1,1′-biphenyl-2-yl)methoxy]phenyl}-1-cyclohexyl-1H-pyrazol-3-yl)-2-methyl-2-propenoic acid] had an IC50 of 0.27 µM.

As to `CCOC(=O)/C(C)=C/c1cc(-c2ccc(OCc3cc(C(=O)OC(C)(C)C)ccc3Br)cc2)n(C2CCCCC2)n1` [Example 10, Ethyl (2E)-3-(5-{4-[(t-butyl-2-bromo-5-phenylcarboxylate)methoxy]phenyl}-1-cyclohexyl-1H-pyrazol-3-yl)-2-methyl-2-propenoate], the IC50 was over 25 µM.

Regarding `CCOC(=O)/C(C)=C/c1cc(-c2ccc(OCc3cc(C(=O)OC(C)(C)C)ccc3-c3ccc(Cl)cc3)cc2)n(C2CCCCC2)n1` [Example 11, Ethyl (2E)-3-(5-{4-[(4′-chloro-4-t-butoxycarbonyl-1,1′-biphenyl-2-yl)methoxy]phenyl}-1-cyclohexyl-1H-pyrazol-3-yl)-2-methyl-2-propenoate], the IC50 is over 25 µM.

As for `CCOC(=O)/C(C)=C/c1cc(-c2ccc(OCc3cc(C(=O)NC)ccc3-c3ccc(Cl)cc3)cc2)n(C2CCCCC2)n1` [Example 12, Ethyl (2E)-3-(5-{4-[(4′-Chloro-4-N-methylcarbamoyl-1,1′-biphenyl-2-yl)methoxy]phenyl}-1-cyclohexyl-1H-pyrazol-3-yl)-2-methyl-2-propenoate], the IC50 is over 25 µM.

`CNC(=O)c1ccc(-c2ccc(Cl)cc2)c(COc2ccc(-c3cc(/C=C(\C)C(=O)O)nn3C3CCCCC3)cc2)c1` [Example 13, (2E)-3-(5-{4-[(4′-Chloro-4-N-methylcarbamoyl-1,1′-biphenyl-2-yl)methoxy]phenyl}-1-cyclohexyl-1H-pyrazol-3-yl)-2-methyl-2-propenoic acid] registered an IC50 of 0.38 µM.

`COC(=O)CCc1cc(-c2ccc(OCc3ccccc3)cc2)n(C2CCCCC2)n1` [Example 14, Methyl 3-{5-[4-(benzyloxy)phenyl]-1-cyclohexyl-1H-pyrazol-3-yl}propanoate]: the half-maximal inhibitory concentration (IC50) was over 25 µM.

Molecule `O=C(O)CCc1cc(-c2ccc(OCc3ccccc3)cc2)n(C2CCCCC2)n1` [Example 15, 3-{5-[4-(benzyloxy)phenyl]-1-cyclohexyl-1H-pyrazol-3-yl}propanoic acid] yielded an IC50 of over 25 µM.

The molecule `COC(=O)CCc1cc(-c2ccc(OCc3cc(OC)ccc3-c3ccc(Cl)cc3)cc2)n(C2CCCCC2)n1` [Example 16, Methyl 3-(5-{4-[(4′-chloro-4-methoxy-1,1′-biphenyl-2-yl)methoxy]phenyl}-1-cyclohexyl-1H-pyrazol-3-yl)propanoate] returned a concentration for half-maximal inhibition (IC50) of over 25 µM.

On to `COc1ccc(-c2ccc(Cl)cc2)c(COc2ccc(-c3cc(CCC(=O)O)nn3C3CCCCC3)cc2)c1` [Example 17, 3-(5-{4-[(4′-chloro-4-methoxy-1,1′-biphenyl-2-yl)methoxy]phenyl}-1-cyclohexyl-1H-pyrazol-3-yl)propanoic acid], for which the IC50 worked out at 1.8 µM.

The molecule `CCOC(=O)C#Cc1cc(-c2ccc(OCc3ccccc3)cc2)n(C2CCCCC2)n1` [Example 18, Ethyl 3-{5-[4-(benzyloxy)phenyl]-1-cyclohexyl-1H-pyrazol-3-yl}-2-propynoate] had an IC50 of over 25 µM.

With `O=C(O)C#Cc1cc(-c2ccc(OCc3ccccc3)cc2)n(C2CCCCC2)n1` [Example 19, 3-{5-[4-(benzyloxy)phenyl]-1-cyclohexyl-1H-pyrazol-3-yl}-2-propynoic acid], the midpoint of inhibition, the IC50, lay at 4.9 µM. This counts as single-digit micromolar.

In turn, `CCOC(=O)C#Cc1cc(-c2ccc(OCc3cc(OC)ccc3-c3ccc(Cl)cc3)cc2)n(C2CCCCC2)n1` [Example 20, Ethyl 3-(5-{4-[(4′-chloro-4-methoxy-1,1′-biphenyl-2-yl)methoxy]phenyl}-1-cyclohexyl-1H-pyrazol-3-yl)-2-propynoate] yielded an IC50 of over 25 µM.

The molecule `COc1ccc(-c2ccc(Cl)cc2)c(COc2ccc(-c3cc(C#CC(=O)O)nn3C3CCCCC3)cc2)c1` [Example 21, 3-(5-{4-[(4′-chloro-4-methoxy-1,1′-biphenyl-2-yl)methoxy]phenyl}-1-cyclohexyl-1H-pyrazol-3-yl)-2-propynoic acid] showed an IC50 of 2.3 µM.

`CCOC(=O)c1nn(C2CCCCC2)c(-c2ccc(OCc3ccccc3)cc2)c1Br` [Example 22, Ethyl 5-[4-(benzyloxy)phenyl]-4-bromo-1-cyclohexyl-1H-pyrazole-3-carboxylate] displayed a 50% inhibitory concentration (IC50) of over 25 µM.

For the molecule `COC(=O)/C=C/c1nn(C2CCCCC2)c(-c2ccc(OCc3ccccc3)cc2)c1Br` [Example 23, Methyl (2E)-3-{5-[4-(benzyloxy)phenyl]-4-bromo-1-cyclohexyl-1H-pyrazol-3-yl}-2-propenoate], the IC50 is over 25 µM.

Turning to `O=C(O)/C=C/c1nn(C2CCCCC2)c(-c2ccc(OCc3ccccc3)cc2)c1Br` [Example 24, (2E)-3-{5-[4-(benzyloxy)phenyl]-4-bromo-1-cyclohexyl-1H-pyrazol-3-yl}-2-propenoic acid], the IC50 turned out to be 3.1 µM.
